Results published in patent publication USRE50082E1, “(5,6-dihydro)pyrimido[4,5-e]indolizines” (NETHERLANDS TRANSLATIONAL RESEARCH CENTER B.V., priority 2014, dated 2024).

Test system: MOLT-4 cancer cell line
Assay: Cell proliferation assay, MOLT-4 cancer cell line (ATPlite);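 further: luminescence read-out, percent growth versus compound-free DMSO wells as maximum growth, start-of-incubation signal separating growth from cell death, IC50 from logistic curve fit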
Type: cell-based
Settings: Homo sapiens, MOLT-4; 72 hours incubation, ATPlite 1Step; read-out: IC50 MOLT-4 cell proliferation

Compound | IC50 [nM]
Cc1cccc(C)c1NC(=O)c1ccn2c1CCc1cnc(Nc3ccc(C(=O)NC4CCN(C)CC4)cc3OC(F)F)nc1-2 [Example 37, 2-[2-(Difluoromethoxy)-4-[(1-methyl-4-piperidyl)carbamoyl]anilino]-N-(2,6-dimethylphenyl)-5,6-dihydropyrimido[4,5-e]indolizine-7-carboxamide] | < 50
CCc1cccc(CC)c1NC(=O)c1ccn2c1CCc1cnc(Nc3ccc(-c4cnn(C)c4)cc3OC)nc1-2 [Example 38, N-(2,6-diethylphenyl)-2-[2-methoxy-4-(1-methylpyrazol-4-yl)anilino]-5,6-dihydropyrimido[4,5-e]indolizine-7-carboxamide] | 50 to 150
COc1cc(OC2CCN(C)CC2)ccc1Nc1ncc2c(n1)-n1ccc(C(=O)Nc3c(C)cccc3C)c1CC2 [Example 39, N-(2,6-dimethylphenyl)-2-[2-methoxy-4-[(1-methyl-4-piperidyl)oxy]anilino]-5,6-dihydropyrimido[4,5-e]indolizine-7-carboxamide] | < 50
CCc1cccc(C)c1NC(=O)c1ccn2c1CCc1cnc(Nc3ccc(OC4CCN(C)CC4)cc3OC)nc1-2 [Example 40, N-(2-ethyl-6-methyl-phenyl)-2-[2-methoxy-4-[(1-methyl-4-piperidyl)oxy]anilino]-5,6-dihydropyrimido[4,5-e]indolizine-7-carboxamide] | < 50
COc1cc(OC2CCN(C)CC2)ccc1Nc1ncc2c(n1)-n1ccc(C(=O)Nc3c(C)cccc3Cl)c1CC2 [Example 41, N-(2-chloro-6-methyl-phenyl)-2-[2-methoxy-4-[(1-methyl-4-piperidyl)oxy]anilino]-5,6-dihydropyrimido[4,5-e]indolizine-7-carboxamide] | < 50
COc1cc(OC2CCN(C)CC2)ccc1Nc1ncc2c(n1)-n1ccc(C(=O)Nc3c(C)cccc3Br)c1CC2 [Example 42, N-(2-bromo-6-methyl-phenyl)-2-[2-methoxy-4-[(1-methyl-4-piperidyl)oxy]anilino]-5,6-dihydropyrimido[4,5-e]indolizine-7-carboxamide] | < 50
CCc1cccc(CC)c1NC(=O)c1ccn2c1CCc1cnc(Nc3ccc(OC4CCN(C)CC4)cc3OC)nc1-2 [Example 43, N-(2,6-diethylphenyl)-2-[2-methoxy-4-[(1-methyl-4-piperidyl)oxy]anilino]-5,6-dihydropyrimido[4,5-e]indolizine-7-carboxamide] | < 50
COCCn1nc(C)c(NC(=O)c2ccn3c2CCc2cnc(Nc4ccc(OC5CCN(C)CC5)cc4OC)nc2-3)c1C [Example 44, N-[1-(2-methoxyethyl)-3,5-dimethyl-pyrazol-4-yl]-2-[2-methoxy-4-[(1-methyl-4-piperidyl)oxy]anilino]-5,6-dihydropyrimido[4,5-e]indolizine-7-carboxamide] | 50 to 150
Cc1cc(OC2CCN(C)CC2)ccc1Nc1ncc2c(n1)-n1ccc(C(=O)Nc3c(C)cccc3Cl)c1CC2 [Example 46, N-(2-chloro-6-methyl-phenyl)-2-[2-methyl-4-[(1-methyl-4-piperidyl)oxy]anilino]-5,6-dihydropyrimido[4,5-e]indolizine-7-carboxamide] | < 50
CCc1n[nH]c(CC)c1NC(=O)c1ccn2c1CCc1cnc(Nc3ccc(OC4CCN(C)CC4)cc3C)nc1-2 [Example 47, N-(3,5-diethyl-1H-pyrazol-4-yl)-2-[2-methyl-4-[(1-methyl-4-piperidyl)oxy]anilino]-5,6-dihydropyrimido[4,5-e]indolizine-7-carboxamide] | < 50
COc1cc(OCCN(C)C)ccc1Nc1ncc2c(n1)-n1ccc(C(=O)Nc3c(C)cccc3Br)c1CC2 [Example 51, N-(2-bromo-6-methyl-phenyl)-2-[4-(2-dimethylaminoethyloxy)-2-methoxy-anilino]-5,6-dihydropyrimido[4,5-e]indolizine-7-carboxamide] | < 50
CCc1cccc(CC)c1NC(=O)c1ccn2c1CCc1cnc(Nc3ccc(OCCN(C)C)cc3OC)nc1-2 [Example 52, N-(2,6-diethylphenyl)-2-[4-(2-dimethylaminoethyloxy)-2-methoxy-anilino]-5,6-dihydropyrimido[4,5-e]indolizine-7-carboxamide] | 50 to 150
CCc1n[nH]c(CC)c1NC(=O)c1ccn2c1CCc1cnc(Nc3ccc(OCCN(C)C)cc3OC)nc1-2 [Example 53, N-(3,5-diethyl-1H-pyrazol-4-yl)-2-[4-(2-dimethylaminoethyloxy)-2-methoxy-anilino]-5,6-dihydropyrimido[4,5-e]indolizine-7-carboxamide] | 50 to 150
Cc1cc(N2CCOCC2)ccc1Nc1ncc2c(n1)-n1ccc(C(=O)Nc3c(C)cccc3C)c1CC2 [Example 56, N-(2,6-dimethylphenyl)-2-(2-methyl-4-morpholino-anilino)-5,6-dihydropyrimido[4,5-e]indolizine-7-carboxamide] | < 50
Cc1cc(N2CCNCC2)ccc1Nc1ncc2c(n1)-n1ccc(C(=O)Nc3c(C)cccc3C)c1CC2 [Example 58, N-(2,6-dimethylphenyl)-2-(2-methyl-4-piperazin-1-yl-anilino)-5,6-dihydropyrimido[4,5-e]indolizine-7-carboxamide] | < 50
CCc1cccc(CC)c1NC(=O)c1ccn2c1CCc1cnc(Nc3ccc(OC4CCN(C)C4)cc3OC)nc1-2 (stereo not shown) [Example 59, N-(2,6-diethylphenyl)-2-[2-methoxy-4-(1-methylpyrrolidin-3-yl)oxy-anilino]-5,6-dihydropyrimido[4,5-e]indolizine-7-carboxamide] | < 50
COc1cc(N2CCN(C)CC2)ccc1Nc1ncc2c(n1)-n1ccc(C(=O)Nc3c(Cl)cccc3Cl)c1CC2 [Example 61, N-(2,6-dichlorophenyl)-2-[2-methoxy-4-(4-methylpiperazin-1-yl)anilino]-5,6-dihydropyrimido[4,5-e]indolizine-7-carboxamide] | < 50
COc1cc(OC2CCN(C)CC2)ccc1Nc1ncc2ccc3c(C(=O)Nc4c(C)cccc4C)ccn3c2n1 [Example 62, N-(2,6-dimethylphenyl)-2-[2-methoxy-4-[(1-methyl-4-piperidyl)oxy]anilino]pyrimido[4,5-e]indolizine-7-carboxamide] | < 50
Cc1cc(N2CCN(C)CC2)ccc1Nc1ncc2c(n1)-n1ccc(C(=O)Nc3c(C)cccc3C)c1CC2 [Example 63, N-(2,6-dimethylphenyl)-2-[2-methyl-4-(4-methylpiperazin-1-yl)anilino]-5,6-dihydropyrimido[4,5-e]indolizine-7-carboxamide] | < 50
CCc1cccc(C)c1NC(=O)c1ccn2c1CCc1cnc(Nc3ccc(N4CCN(C)CC4)cc3C)nc1-2 [Example 64, N-(2-ethyl-6-methyl-phenyl)-2-[2-methyl-4-(4-methylpiperazin-1-yl)anilino]-5,6-dihydropyrimido[4,5-e]indolizine-7-carboxamide] | < 50
Cc1cc(N2CCN(C)CC2)ccc1Nc1ncc2c(n1)-n1ccc(C(=O)Nc3c(C)cccc3Br)c1CC2 [Example 65, N-(2-bromo-6-methyl-phenyl)-2-[2-methyl-4-(4-methylpiperazin-1-yl)anilino]-5,6-dihydropyrimido[4,5-e]indolizine-7-carboxamide] | < 50
Cc1cc(N2CCN(C)CC2)ccc1Nc1ncc2c(n1)-n1ccc(C(=O)Nc3c(Cl)cccc3Cl)c1CC2 [Example 66, N-(2,6-dichlorophenyl)-2-[2-methyl-4-(4-methylpiperazin-1-yl)anilino]-5,6-dihydropyrimido[4,5-e]indolizine-7-carboxamide] | < 50
